From patent publication US8334286B2, “Substituted pyrrolo[1,2-A] pyrazines, compositions containing these, processes of making these, and uses thereof” (Neurotune AG, priority 2008, dated 2012) come the findings set out here.

Data set [1] has as its system MIA-induced hyperalgesia. Put plainly: MIA-induced hyperalgesia in the rat (incapacitance test), osteoarthritic pain. It is filed as in vivo. To be noted: MIA-treated rats, grams of the right paw, mean ± S.E.M. The method, then: In all methods, paw mechanical sensitivity was determined using either the paw pressure test or the incapacitance test. […] Osteoarthritis was induced by a single administration of 2 mg (in a volume of 25 μl) of monosodium iodoacetate (MIA) into the left knee joint of anaesthetized rats (male adult Sprague Dawley rats, 150-200 g, supplier Harlan) (Fernihough J. 2004, Pain 112:83-93). This treatment induces the progressive degeneration of the joint and the development of hyperalgesia, mimicking at the histological and behavioral levels what observed in humans. Pharmacological test was performed 7 days after treatment.

In data set [2] the test system is paclitaxel-induced hyperalgesia. In words: Paclitaxel-induced hyperalgesia in the rat (paw-pressure test). Type of data set: in vivo. To be noted: PCT-treated rats, mean ± S.E.M.; for Mechanical threshold (g), After Treatment 15 min: 15 min after treatment; for Mechanical threshold (g), After Treatment 30 min: 30 min after treatment; for Mechanical threshold (g), After Treatment 45 min: 45 min after treatment. The method, then:
In all methods, paw mechanical sensitivity was determined using either the paw pressure test or the incapacitance test. The paw pressure test utilizes a Randall & Selitto apparatus, exerting a force that increases at constant rate (32 g/s). The stimulus at which rats withdrawn the paw was evaluated before and at different times after treatment. Results represent the mean of mechanical thresholds expressed as grams. To avoid any possible damage to the animal paw the maximum applied force was fixed at 240 g. Peripheral neuropathy is induced by repeated administration of vincristine, paclitaxel or oxaliplatin to adult male Sprague-Dawley rats (150-200 g, supplier Harlan). The following protocols were used respectively: • Vincristine: the drug was injected by intravenous route at the dose of 150 μg/kg. The treatment was performed every 2 days, for 5 times, until a cumulative dose of 750 μg/kg was reached. Paw pressure test was performed 4 days after the last injection (Marchand F. et al. 2003, Brain Res. 980:117-120). • Paclitaxel: paclitaxel (PCT) neuropathy was induced by intraperitoneal administration of 0.5 mg/kg once a day, on days 1, 3, 5 and 8. Cumulative paclitaxel dose was 2 mg/kg. The pharmacological test was performed 14-18 days after the last paclitaxel injection (Polomano R. C. et al. 2001, Pain 94:293-304). • Oxaliplatin: 2.4 mg/kg were injected by intraperitoneal route for 5 consecutive days followed by 2 days suspension (one cicle). A total of 3 cycles was performed, reaching a cumulative dose of 36 mg/kg (Cavaletti G. 2001, Eur. J. Cancer 37:2457-2463). The test was performed 48 h after the last oxaliplatin injection. 2. Osteoarthritic Pain

The subject of data set [3] is MIA-induced hyperalgesia. In words: MIA-induced hyperalgesia in the rat (paw-pressure test), osteoarthritic pain. It is filed as in vivo. Conditions: MIA-treated rats, mean ± S.E.M. The method, then:
In all methods, paw mechanical sensitivity was determined using either the paw pressure test or the incapacitance test. The paw pressure test utilizes a Randall & Selitto apparatus, exerting a force that increases at constant rate (32 g/s). The stimulus at which rats withdrawn the paw was evaluated before and at different times after treatment. Results represent the mean of mechanical thresholds expressed as grams. To avoid any possible damage to the animal paw the maximum applied force was fixed at 240 g. Osteoarthritis was induced by a single administration of 2 mg (in a volume of 25 μl) of monosodium iodoacetate (MIA) into the left knee joint of anaesthetized rats (male adult Sprague Dawley rats, 150-200 g, supplier Harlan) (Fernihough J. 2004, Pain 112:83-93). This treatment induces the progressive degeneration of the joint and the development of hyperalgesia, mimicking at the histological and behavioral levels what observed in humans. Pharmacological test was performed 7 days after treatment.

Setting [4] is: 3 mg/kg i.v., 15 min after treatment.
The mark [5] stands for this setting: 3 mg/kg i.v., 30 min after treatment.
[6] abbreviates: 3 mg/kg i.v., 45 min after treatment.
Setting [7] is: before treatment (basal), group 3 mg/kg i.v.

For orientation: melting point means the temperature, or range, at which the solid turns liquid. As to `O=C1CC[C@H]2CN(S(=O)(=O)c3ccccc3F)CCN12` [Example 1, (S)-(−)2-(2-fluorophenylsulfonyl)hexahydro pyrrolo[1,2-a]pyrazin-6(7H)-one], the melting point lay in the range of 142 to 144 °C.

`O=C1CC[C@H]2CN(S(=O)(=O)c3cccc(F)c3)CCN12` [Example 2, (S)-(−)2-(3-fluorophenylsulfonyl)hexahydro pyrrolo[1,2-a]pyrazin-6(7H)-one] had a melting point of 177 to 179 °C.

As for `O=C1CC[C@@H]2CN(S(=O)(=O)c3ccccc3F)CCN12` [Example 3, (R)-(+)2-(2-fluorophenylsulfonyl)hexahydro pyrrolo[1,2-a]pyrazin-6(7H)-one], the melting point fell in the range of 136 to 137 °C. Moreover, the “Weight borne on right hind paw” value with MIA-induced hyperalgesia [1] (setting [4]) is given as 106.9 ± 7.3 g. Also, the “Weight borne on right hind paw” value in the data set on MIA-induced hyperalgesia [1] (setting [5]) was determined as 112.1 ± 8.5 g. The “Weight borne on right hind paw” value with MIA-induced hyperalgesia [1] (setting [6]) was 81.8 ± 6.6 g. Moreover, the “Weight borne on right hind paw” value in the data set with MIA-induced hyperalgesia [1] (setting [7]) is on record as 41.8 ± 6.0 g. For the same compound, in data set [2] (3 mg/kg i.v.), the “Mechanical threshold (g), After Treatment 15 min” value was found to be 45.6 ± 3.9 g; the “Mechanical threshold (g), After Treatment 30 min” value amounted to 53.3 ± 2.7 g; the “Mechanical threshold (g), After Treatment 45 min” value is 46.2 ± 3.3 g. Moreover, in the data set on MIA-induced hyperalgesia [3] (setting [4]), the “Mechanical threshold (g), After Treatment 15 min” value was found to be 61.3 ± 3.0 g. Besides, in the data set with MIA-induced hyperalgesia [3] (setting [5]), the “Mechanical threshold (g), After Treatment 30 min” value is reported as 58.1 ± 3.7 g. Moreover, the “Mechanical threshold (g), After Treatment 45 min” value in the data set with MIA-induced hyperalgesia [3] (setting [6]) was found to be 49.2 ± 4.1 g. For the same compound, the “Mechanical threshold (g), Before Treatment basal” value in the data set on MIA-induced hyperalgesia [3] (setting [7]) stood at 21.9 ± 1.9 g.

Compound `O=C1CC[C@@H]2CN(S(=O)(=O)c3ccc(F)c(F)c3)CCN12` [Example 5, (R)-(+)-2-(3,4-difluorophenylsulfonyl)hexahydro pyrrolo[1,2-a]pyrazin-6(7H)-one] displayed a melting point of 208 to 209 °C.

For the compound `Cc1ccccc1S(=O)(=O)N1CCN2C(=O)CC[C@@H]2C1` [Example 6, (R)-(+)-2-(o-tolylsulfonyl)hexahydro pyrrolo[1,2-a]pyrazin-6(7H)-one], the melting point lay within 68 to 70 °C. For the same compound, in data set [2] (3 mg/kg i.v.), the “Mechanical threshold (g), After Treatment 15 min” value was 49.4 ± 3.0 g; the “Mechanical threshold (g), After Treatment 30 min” value is on record as 48.8 ± 2.8 g; the “Mechanical threshold (g), After Treatment 45 min” value is 40.7 ± 2.2 g.

Regarding `Cc1cccc(S(=O)(=O)N2CCN3C(=O)CC[C@@H]3C2)c1` [Example 7, (R)-(+)-2-(m-tolylsulfonyl)hexahydro pyrrolo[1,2-a]pyrazin-6(7H)-one], the melting point lay within 133 to 134 °C. In data set [2] (3 mg/kg i.v.), the “Mechanical threshold (g), After Treatment 15 min” value stood at 38.7 ± 2.2 g; the “Mechanical threshold (g), After Treatment 30 min” value came out at 47.6 ± 2.4 g; the “Mechanical threshold (g), After Treatment 45 min” value worked out at 36.4 ± 2.5 g.

In turn, `O=C1CC[C@@H]2CN(S(=O)(=O)c3cccc(C(F)(F)F)c3)CCN12` [Example 9, (R)-(+)-2-(3-(tifluoromethyl)phenylsulfonyl) hexahydropyrrolo [1,2-a]pyrazin-6(7H)-one] returned a melting point of 172 to 174 °C. For the same compound, in data set [2] (3 mg/kg i.v.), the “Mechanical threshold (g), After Treatment 15 min” value was found to be 41.6 ± 3.6 g; the “Mechanical threshold (g), After Treatment 30 min” value is 44.5 ± 2.8 g; the “Mechanical threshold (g), After Treatment 45 min” value was determined as 42.9 ± 4.3 g.

On to `O=C1CC[C@@H]2CN(S(=O)(=O)c3ccc(C(F)(F)F)cc3)CCN12` [Example 10, (R)-(+)-2-(4-(trifluoromethyl)phenylsulfonyl) hexahydropyrrolo [1,2-a]pyrazin-6(7H)-one], for which the melting point is 226 to 227 °C.

`N#Cc1ccccc1S(=O)(=O)N1CCN2C(=O)CC[C@@H]2C1` [Example 11, (R)-2-(6-oxohexahydropyrrolo[1,2-a]pyrazin-2(1H)-ylsulfonyl) benzonitrile] came in with a melting point of 198 to 199 °C. For the same compound, in data set [2] (3 mg/kg i.v.), the “Mechanical threshold (g), After Treatment 15 min” value turned out to be 45.3 ± 1.6 g; the “Mechanical threshold (g), After Treatment 30 min” value was 50.7 ± 2.3 g; the “Mechanical threshold (g), After Treatment 45 min” value was determined as 48.4 ± 2.7 g.

On to `N#Cc1cccc(S(=O)(=O)N2CCN3C(=O)CC[C@@H]3C2)c1` [Example 12, (R)-3-(6-oxohexahydropyrrolo[1,2-a]pyrazin-2(1H)-ylsulfonyl) benzonitrile], for which the melting point is 180 to 181 °C. Also, in data set [2] (3 mg/kg i.v.), the “Mechanical threshold (g), After Treatment 15 min” value is listed as 39.8 ± 3.7 g; the “Mechanical threshold (g), After Treatment 30 min” value was 41.5 ± 3.8 g; the “Mechanical threshold (g), After Treatment 45 min” value was determined as 39.2 ± 4.4 g.

`N#Cc1ccc(S(=O)(=O)N2CCN3C(=O)CC[C@@H]3C2)cc1` [Example 13, (R)-(+)-4-(6-oxohexahydropyrrolo[1,2-a]pyrazin-2(1H)-ylsulfonyl) benzonitrile] gave a melting point of 242 to 243 °C. Besides, in data set [2] (1 mg/kg i.v.), the “Mechanical threshold (g), After Treatment 15 min” value was 35.6 ± 3.1 g; the “Mechanical threshold (g), After Treatment 30 min” value is 39.7 ± 2.4 g; the “Mechanical threshold (g), After Treatment 45 min” value was 34.8 ± 3.3 g.

`COc1cccc(S(=O)(=O)N2CCN3C(=O)CC[C@@H]3C2)c1` [Example 15, (R)-2-(3-methoxyphenylsulfonyl)hexahydro pyrrolo[1,2-a]pyrazin-6(7H)-one] returned a melting point of 144 to 145 °C.

In turn, `O=C1CC[C@@H]2CN(S(=O)(=O)c3cccnc3)CCN12` [Example 16, (R)-2-(pyridin-3-ylsulfonyl)hexahydro pyrrolo[1,2-a]pyrazin-6(7H)-one] displayed a melting point of 165 to 166 °C.

On to `O=C(c1ccccc1F)N1CCN2C(=O)CC[C@H]2C1` [Example 18, (S)-2-(2-fluorobenzoyl) hexahydropyrrolo [1,2-a]pyrazin-6(7H)-one], for which the melting point was in the range of 123 to 124 °C.

Take `O=C(c1cccc(F)c1)N1CCN2C(=O)CC[C@H]2C1` [Example 19, (S)-2-(3-fluorobenzoyl) hexahydropyrrolo [1,2-a]pyrazin-6(7H)-one]: the melting point is 161 to 162 °C.

Compound `O=C(c1ccccc1F)N1CCN2C(=O)CC[C@@H]2C1` [Example 20, (R)-2-(2-fluorobenzoyl) hexahydropyrrolo [1,2-a]pyrazin-6(7H)-one] displayed a melting point of 123 to 124 °C. Besides, in data set [2] (3 mg/kg i.v.), the “Mechanical threshold (g), After Treatment 15 min” value was 41.4 ± 2.3 g; the “Mechanical threshold (g), After Treatment 30 min” value stood at 45.7 ± 3.5 g; the “Mechanical threshold (g), After Treatment 45 min” value is 35.8 ± 3.0 g.

`O=C(c1cccc(F)c1)N1CCN2C(=O)CC[C@@H]2C1` [Example 21, (R)-2-(3-fluorobenzoyl) hexahydropyrrolo [1,2-a]pyrazin-6(7H)-one] yielded a melting point of 161 to 162 °C. Moreover, in data set [2] (3 mg/kg i.v.), the “Mechanical threshold (g), After Treatment 15 min” value is 40.9 ± 3.5 g; the “Mechanical threshold (g), After Treatment 30 min” value worked out at 46.2 ± 4.3 g; the “Mechanical threshold (g), After Treatment 45 min” value came to 37.6 ± 4.3 g.

`Cc1ccc(N2CCN3C(=O)CCC3C2=O)cc1` (centres unmarked) [Example 24, 2-p-Tolyl-tetrahydro-pyrrolo[1,2-a]pyrazine-1,6-dione] registered a melting point of 115 to 117 °C. In data set [2] (3 mg/kg i.v.), the “Mechanical threshold (g), After Treatment 15 min” value is 42.2 ± 2.6 g; the “Mechanical threshold (g), After Treatment 30 min” value turned out to be 43.4 ± 4.1 g; the “Mechanical threshold (g), After Treatment 45 min” value was determined as 36.5 ± 4.2 g.
